These results are taken from patent publication US11542475B2, “3D microphysiologic system” (Northwestern University, priority 2014, dated 2023).

In test [1] the test system is human fallopian tube epithelium. Kind of test: Fallopian epithelia cilia beating quantification. The class given is cell-based. To be noted: 7 days culture; P4 added to E2. How it is done:
Human fallopian tissue was obtained from routine hysterectomies from women in their reproductive years (ages range from 26 to 50 years old) and who had not undergone exogenous hormonal treatment for at least three months prior to surgery. Informed consent was obtained from each patient and approval granted by the ethics committee of the Northwestern University. Human fallopian tissue was kept in the DMEM/F12 medium with 10% FBS on ice and processed within 24 hours. The tissue was washed with warm PBS solution two times before being transferred into warm dissection medium (Liebowitz 15 with 0.5% P/S and 10% FBS). After cleaning connective tissue from outside of the fallopian tissue, the fallopian tube was cut open and the inner epithelia layer was mechanically dissected using forceps. […]
Fallopian epithelia layers were cultured in estradiol (E2) 1 nM, E2 1 nM+progesterone (P4) 10 nM, E2 0.1 nM+P4 50 nM or with solvent only negative control for 7 days. Cilia beating movies were acquired using an Andor Spinning Disk Confocal with 5 ms exposure time and 5 ms readout time. […] The Multiple Kymograph plugin for the NIH ImageJ software was used to quantify cilia beating frequency. In each movie, 8 clusters of cilia were picked for the cilia beating quantification.

Test [2] concerns human fallopian fimbriae FTE. Kind of test: 3D human fimbriae culture: FTE proliferation by BrdU labeling. The class given is cell-based. To be noted: insulin 5 μg/ml (ITS), H2O2 1 mM, E2 10 nM, n=6. The procedure: (§1) Tissues were micro-dissected in alpha-MEM (Gibco, Carlsbad, Calif.) with 1% penicillin-streptomycin (Invitrogen, Carlsbad, Calif.). Individual fimbriae were separated into ˜50 mm^3 pieces. A portion of the tissue was fixed in 2% paraformaldehyde for use as an uncultured control. For optimization studies, fimbriae were cultured without matrix, encapsulated in 0.5% alginate, or encapsulated in 0.5% alginate with 1 mg/ml collagen and 0.1% fibronectin, as previously described for murine cultures (King et al. J Vis Exp. 2011.; herein incorporated by reference in its entirety). For subsequent treatments, 0.5% alginate encapsulated fimbriae were randomly assigned to treatment groups, with at least five fimbriae per condition, per patient, in a 24-well plate containing alpha-MEM and 1% penicillin-streptomycin. […] Prior to fixation, fimbriae were labeled with 10 μM bromodeoxyurine (BrdU, Sigma-Aldrich) for 24 hours to denote proliferating cells. Fimbriae cultures were fixed (2% paraformaldehyde) followed by dehydration in ethanol and xylene, and embedment in paraffin.
Sections (5 μm) were cut and stained via hematoxylin and eosin for morphological analysis or immunohistochemistry was performed to localize proteins of interest as previously described (King et al. Endocr Relat Cancer. 2011. 18:627-42.; herein incorporated by reference in its entirety). Slides were rehydrated through an ethanol gradient, prior to 0.1M sodium citrate retrieval and peroxidase block. Tissues probed for BrdU were exposed to 4M HCl and 0.1M NaB4O7(Fisher Scientific) to denature DNA. All immunohistochemical reagents were obtained from Vector Laboratories, Inc (Burlingame, Calif.) unless otherwise stated. Tissues were blocked in 3% bovine serum albumin (Gemini, West Sacramento, Calif.)-TBS/10% serum and incubated with a primary antibody 1:50 acetylated tubulin (Cell Signaling, Cambridge, Mass.); 1:200 BrdU (AbCam, Cambridge, Mass.); 1:100 cytokeratin 8 (CK8, Developmental Studies Hybridoma Bank, Iowa City, Iowa); 1:50 p53 (Santa Cruz, Santa Cruz, Calif.); 1:100 PAX8 (Proteintech, Chicago, Ill.); 1:100 pH2AX (Cell Signaling); or 1:75 PR (Santa Cruz)) overnight at 4°. Tissues were washed in TBS-0.1% Tween and incubated with a secondary antibody (1:200), before being probed with ABC peroxidase standard, followed by detection with 3,3′-diaminobenzidine (DAB) and counterstained with hematoxylin.
Immunohistochemistry images were taken via a Nikon E600 microscope, DXM1200 digital camera and NIS Elements software (Nikon Instruments, Melville, N.Y.). For proliferation analysis, concurrent sections were stained for CK8 and BrdU. BrdU sections were imaged and epithelial cells (CK8 positive) were quantified for proliferation via ImageJ software (NIH, Bethesda, Md.). At least three fimbriae with 200 or more FTE were quantified for each treatment. […] Samples with p53 expression were quantified utilizing adjacent sections stained for the secretory cell marker PAX8 in a qualitative manner as described.

In a further test the test system is IL8. Kind of test: ELISA of fallopian culture medium: IL8. The test is classed as cell-based, human. To be noted: 10 nM E2, 7 days, conditioned medium, n=7. How it is done:
as §1, with “Fimbriae cultures were fixed (2% paraformaldehyde) followed by dehydration in ethanol and xylene, and embedment in paraffin.” left out
(§2) IL8, VEGF-A, and FGF2 were detected in fallopian culture medium by enzyme-linked immunosorbent assay for human IL8 (EMD Millipore, Billerica, Mass., USA), VEGF-A (RayBiotech, GA, USA), or FGF2 (Abcam) respectively using the manufacturers' protocols. […] Results were normalized to total protein content as determined by western blotting and Ponceau staining to account for difference in tissue size between treatment groups. […]
On the technique in general: ELISA stands for enzyme-linked immunosorbent assay.

In a further test the test system is VEGF-A. The test is described as follows: ELISA of fallopian culture medium: VEGF-A. The test is classed as cell-based, human. The conditions noted are these: 10 nM E2, 7 days, n=7; not significantly altered. The procedure:
as §1, with “Fimbriae cultures were fixed (2% paraformaldehyde) followed by dehydration in ethanol and xylene, and embedment in paraffin.” left out
as §2

The test system of a further test is p53 stabilization in FTE. Kind of test: 3D human fimbriae culture: p53 immunohistochemistry. The class given is cell-based. The conditions noted are these: 2 and 7 days treatment, n=8. How it is done:
as §1
Sections (5 μm) were cut and stained via hematoxylin and eosin for morphological analysis or immunohistochemistry was performed to localize proteins of interest as previously described (King et al. Endocr Relat Cancer. 2011. 18:627-42.; herein incorporated by reference in its entirety). Slides were rehydrated through an ethanol gradient, prior to 0.1M sodium citrate retrieval and peroxidase block. […]
Immunohistochemistry images were taken via a Nikon E600 microscope, DXM1200 digital camera and NIS Elements software (Nikon Instruments, Melville, N.Y.). […] BrdU sections were imaged and epithelial cells (CK8 positive) were quantified for proliferation via ImageJ software (NIH, Bethesda, Md.). At least three fimbriae with 200 or more FTE were quantified for each treatment. Analysis of p53 staining was similar, with at least three fimbriae per treatment, per patient analyzed. Samples with p53 expression were quantified utilizing adjacent sections stained for the secretory cell marker PAX8 in a qualitative manner as described.

On to `C[C@]12CC[C@@H]3c4ccc(O)cc4CC[C@H]3[C@@H]1CC[C@@H]2O` [E2, estradiol], for which the “cilia beating frequency (CBF)” value in test [1] is “significantly increased”. For the same molecule, the figures for the “FTE proliferation (percentage of total FTE cells, BrdU)” value in test [2] (2 days in culture) and in test [2] (7 days in culture) were 5.2±2.3% and 2.4±0.5%, respectively. Moreover, the “IL8 increase compared to vehicle control” value with IL8 is on record as 22%±13%. The “VEGF-A increase compared to vehicle control” value in the test on VEGF-A is recorded as 140%±75%. The p53 stabilization result with p53 stabilization in FTE is given as “no factor notably induced p53 stabilization”.
